Results on 63 compounds are retold here after a melting point compilation (Tetko et al.; mined from patent text by program, amines drawn as free bases though some values may be those of a salt).

In general, melting point refers to the temperature, or range, at which the solid turns liquid. Compound `CNc1cccc(C#CCCn2nc3ccccc3n2)n1` showed a melting point of 150 to 154 °C.

For `Cc1nc(O)c([N+](=O)[O-])c(N2CCc3ccccc3CC2)n1`, the melting point was more than 200 °C.

`Cc1c(CCC(=O)c2c[nH]c3ccccc23)ncn1C(c1ccccc1)(c1ccccc1)c1ccccc1` gave a melting point of 225 to 227 °C. Under `O=S(=O)(OCC(F)(F)F)c1ccc2ccccc2c1` stands 72.7 °C. The result for `NC(=O)C1(c2ccccc2)CCN(CCC2(c3ccc(Cl)c(Cl)c3)CCN(C(=O)c3ccccc3)C2)CC1` (stereo not drawn) reads 87 to 90 °C; that for `N[C@H]1CCN(c2ccc3c(C(=O)NCCc4ccccc4Cl)c(Cl)ccc3n2)C1`, 196 to 198 °C.

The compound `N=C(N)NCCCC(NC(=O)C(CS)Cc1ccccc1)C(=O)O` (stereo not drawn) had a melting point of 135 °C.

`O=C(NCCN1CCOCC1)Oc1cccc(C2CCCN2Cc2ccccc2)c1` (stereo not drawn) showed a melting point of 74 to 77 °C. The result for `COc1cccc(-n2c3c(c(=O)c4cccnc42)CC(CBr)O3)c1` (stereo not drawn) reads 196 to 198 °C. The compound `CCCc1c(OCCCOc2ccc(-c3c[nH]c(SCc4ccccc4)n3)c(OC)c2CCC)ccc2c1OC(C(=O)O)CC2` (stereo not drawn) yielded a melting point of 92 to 97 °C.

Compound `CCCCCCCCCCOc1ccc2c(=O)c3cc(C(=O)O)ccc3oc2c1CCC(=O)O` had a melting point of more than 210 °C. Consider `Clc1ccc(OCOCOc2ccc(Cl)cc2)cc1`, for which the melting point lay within 53.5 to 54 °C. The result for `COc1cc(Nc2nccc(-c3ccc(N4CCN(C)[C@@H](C)C4)nc3)n2)cc(OC)c1OC` reads 92 to 93 °C; that for `CCCCCNC(=O)CCCCC`, 37 °C. The compound `COC(=O)c1ccc(C(=O)NC(C)C)cc1S(=O)(=O)NC(C)(C)C` yielded a melting point of 159 to 160 °C. `CC(C)(C)NS(=O)(=O)c1cccc(NC(=O)c2cnn3c(C4CC4)cc(-c4ccc(C(F)(F)F)cc4)nc23)c1`: the melting point was 258 to 259 °C. `O=C1Cc2cccc(Oc3cccc4ccccc34)c2N1` registered a melting point of 158 to 160 °C.

Compound `CNC1=NS(=O)(=O)N=C1NCCSCc1csc(CN(C)C)n1` had a melting point of 144 to 148 °C.

Turning to `O=C(NCCO)c1cccc(-c2ccc3c(n2)N(c2ccc(Cl)cc2Cl)CC3)c1`, the melting point is 168 to 169 °C.

`Cc1sc(-c2ccccc2)nc1COc1ccc(COc2ncccc2CC#N)cc1`: the melting point was in the range of 161 to 162 °C. Under `OC1(C#Cc2cccc(Cl)c2)CCCNC1` (stereo not drawn) stands 113 to 114 °C; under `Cc1ccc(-c2ccc(O)cc2)c(-c2ccc(OCCN3CCOCC3)cc2)n1`, 75 to 80 °C; under `CCn1c2ccc(C(C)=O)cc2c2cc(C(C)=O)ccc21`, 184 to 190 °C. Under `Cc1nc(OCc2c(C(C)C)nnn2-c2c(Cl)cccc2Cl)ccc1N(C)S(=O)(=O)c1ccc(C(=O)O)cc1` stands 128 to 129 °C; under `CCN1C=C(C(=O)c2c(C)nn3ccccc23)CCC1`, 104 to 105 °C. Under `Clc1ccc(-c2ncc(C#Cc3ccccc3)s2)cc1` stands 108 to 110 °C; under `N#Cc1cnn2c(-c3ccncc3)ccnc12`, 137 to 138 °C; under `Cc1cc(O)cc(N(C)C)c1`, 67 to 68 °C. `Cn1c2ccccc2c2cc(CO)ccc21` gave a melting point of 96 °C.

Compound `COC(=O)C1=C(C)NC(C)=C(S(C)(=O)=O)C1c1ccccc1C(F)(F)F` (stereo not drawn) showed a melting point of 160 to 163 °C. The result for `Cc1ccc(C(=O)NCCc2ccccc2Cl)cc1` reads 106 to 108 °C; that for `O=C(O)C(=O)c1ccc(OCCSc2ccccc2)cc1`, 72 to 73 °C.

As to `O=C(Nc1ccc(CN2C(=O)[C@H]3CCC[C@H]3N(C(=O)CN3C(=O)c4ccccc4C3=O)c3ccccc32)cc1)c1ccc(F)cc1` (relative stereo), the melting point lay within 244 to 246 °C. Under `COc1c(C)cnc(Cn2c(SC/C=C(\C)CCC=C(C)C)nc3ccccc32)c1C` stands 76 to 80 °C. `CNc1cc(F)ccc1C(=O)CS(=O)(=O)NC` gave a melting point of 140 to 142 °C. The result for `CC(=O)c1c(C)[nH]c(C(C)CC(C)C)c1C` (stereo not drawn) reads 140 to 142 °C; that for `CCCCN(CC(=O)c1ccc(OCc2ccccc2)c2[nH]c(C(=O)OCCN3CCOCC3)cc12)Cc1ccccc1`, 149 to 150 °C; that for `O=C(Oc1ccc(Oc2ccc(C(F)(F)F)cn2)cc1)N1CCN(CCc2cccnc2)CC1`, 173 to 179 °C.

`COc1cn(-c2ccc(-n3c(=O)ccn3C(F)F)cc2F)nc(-c2ccnn2-c2ccccc2)c1=O`: the melting point lay in the range of 161 to 163 °C. For the compound `COC(=O)C1=C(C(F)F)NC(C)=C(C(=O)OC(C)C)C1c1cccc([N+](=O)[O-])c1` (stereo not drawn), the melting point lay in the range of 140 to 141 °C. The result for `COC(=O)c1ccc(Cn2c(=O)c3cc(C(=O)NCc4ccc(OC)cc4)sc3n(C)c2=O)cc1` reads 235 to 237 °C; that for `CCC(NC(C)=O)c1ccc(CN2CCN(c3ccc(F)cc3)CC2)cc1` (stereo not drawn), 113 to 114 °C; that for `N=C(NO)c1ccnc(N)c1`, 188 °C.

Consider `Nc1ccccc1NC(=O)c1ccc(COc2ccc3ncnc(Nc4cccc(Br)c4)c3c2)cc1`, for which the melting point lay in the range of 215 to 218 °C.

`COc1cnc(N)c2ccccc12` had a melting point of 112 to 114 °C. The result for `CCC(Cc1c(I)cc(I)c(NC(=O)CN2CCNCCNCCNCC2)c1I)C(=O)O` (stereo not drawn) reads 201 °C.

As to `Cc1ccc(C=CCN2CCc3nc(N)sc3CC2)cc1`, the melting point was 126 to 130 °C. The result for `C[C@H](NC(=O)C[C@H](O)CC(=O)/C=C/c1c(C2CC2)nc2ccccc2c1-c1ccc(F)cc1)c1ccccc1` reads 150 to 151 °C. The result for `O=C(O)[C@@]1(c2ccc3ccccc3c2)CC1(c1ccccc1)c1ccccc1` reads 195 to 196 °C. The result for `Nc1ccc2c(c1)N(C(=O)CCCl)CC2` reads 158 to 159 °C. Turning to `Nc1ccc(-c2cnc(CSCCOc3ccccc3)o2)cc1`, the melting point lay in the range of 110 to 111 °C. Regarding `CC(C)c1cc(C(C)C)c(C=CCC(=O)O)c(C(C)C)c1`, the melting point was in the range of 201 to 203 °C. Under `COc1cnc2c(c1)c(CCNC(=O)c1ccco1)c1n2CCCO1` stands 70 to 71 °C. Under `CC(=O)N1CCN(Cc2cnc(-c3cc4c(Cl)ccc(N(C)S(=O)(=O)c5cccs5)c4[nH]3)s2)CC1` stands 224 to 225 °C; under `Cn1nc(-c2ccccc2)c(Oc2ccc(N)cc2)c1-c1ccccc1`, 167 to 169 °C. `C#CCCCC(=O)c1nc(C(C)(C)C)c(O)c(C(C)(C)C)n1` came in with a melting point of 64 to 66 °C.

The compound `CCCCc1nc2c(N)nc3cccnc3c2n1CCNC(C)=O` displayed a melting point of 228 to 230 °C. Under `CCCCOc1cc(CCC(=O)O)ccc1-c1cccc(CN(C)C(=O)c2ccccc2)c1` stands 103 to 105 °C; under `Cn1nc(-c2c(Cl)cccc2Cl)nc1Cc1ccc(Cl)cc1`, 112 to 115 °C. Under `O=C(Nc1ccc(Cl)c(Cl)c1)NS(=O)(=O)c1ccc2c(c1)C(O)CO2` (stereo not drawn) stands 109 to 112 °C; under `CC(C)(C)c1ccc(Oc2coc(C(=O)O)cc2=O)cc1`, 190 to 193 °C. Turning to `CN1CCC(c2nn(C(=O)c3ccc(Cl)c(Cl)c3)c3ccccc23)CC1`, the melting point was in the range of 187 to 189 °C. Under `[N-]=[N+]=NS(=O)(=O)c1cccc(C(=O)O)c1` stands 122 to 127 °C.
